Laboratory results taken from the NIST ThermoML archive (doi:10.1021/je8003782).

Assay: xn = mol fraction of the nth substance listed
Conditions: 101 kPa, Liquid

C1N2CN3CN1CN(C2)C3 [1,3,5,7-tetraazaadamantane] + CC(=O)O
Conditions	mass density [kg/m3]	viscosity [mPa·s]
293.15 K, x1 = 0.0201	1058.6	1.497
293.15 K, x1 = 0.0401	1066.7	1.865
293.15 K, x1 = 0.06	1075.67	2.363
293.15 K, x1 = 0.0801	1085.77	3.021
293.15 K, x1 = 0.1	1091.87	3.841
293.15 K, x1 = 0.1201	1100.76	4.951
293.15 K, x1 = 0.15	1111.19	7.154
298.15 K, x1 = 0.0201	1052.66	1.367
298.15 K, x1 = 0.0401	1061.41	1.682
298.15 K, x1 = 0.06	1070.38	2.106
298.15 K, x1 = 0.0801	1080.66	2.655
298.15 K, x1 = 0.1	1086.54	3.333
298.15 K, x1 = 0.1201	1095.79	4.254
298.15 K, x1 = 0.15	1106.18	5.988
303.15 K, x1 = 0.0201	1046.65	1.248
303.15 K, x1 = 0.0401	1055.87	1.523
303.15 K, x1 = 0.06	1065.17	1.893
303.15 K, x1 = 0.0801	1075.44	2.355
303.15 K, x1 = 0.1	1081.61	2.919
303.15 K, x1 = 0.1201	1090.8	3.657
303.15 K, x1 = 0.15	1101.14	5.085
308.15 K, x1 = 0.0201	1042.8	1.148
308.15 K, x1 = 0.0401	1050.6	1.383
308.15 K, x1 = 0.06	1059.92	1.703
308.15 K, x1 = 0.0801	1068.93	2.091
308.15 K, x1 = 0.1	1076.58	2.565
308.15 K, x1 = 0.1201	1086.04	3.179
308.15 K, x1 = 0.15	1096.34	4.368
313.15 K, x1 = 0.0201	1036.2	1.059
313.15 K, x1 = 0.0401	1045.66	1.268
313.15 K, x1 = 0.06	1055.02	1.549
313.15 K, x1 = 0.0801	1063.52	1.879
313.15 K, x1 = 0.1	1071.68	2.296
313.15 K, x1 = 0.1201	1081.27	2.806
313.15 K, x1 = 0.15	1091.63	3.821
318.15 K, x1 = 0.0201	1030.1	0.992
318.15 K, x1 = 0.0401	1039.61	1.179
318.15 K, x1 = 0.06	1049.52	1.435
318.15 K, x1 = 0.0801	1057.74	1.719
318.15 K, x1 = 0.1	1065.6	2.073
318.15 K, x1 = 0.1201	1076.49	2.512
318.15 K, x1 = 0.15	1086	3.352
323.15 K, x1 = 0.0201	1024.35	0.909
323.15 K, x1 = 0.0401	1034.21	1.072
323.15 K, x1 = 0.06	1044.05	1.296
323.15 K, x1 = 0.0801	1052.4	1.541
323.15 K, x1 = 0.1	1060.71	1.842
323.15 K, x1 = 0.1201	1069.06	2.203
323.15 K, x1 = 0.15	1080.9	2.893
328.15 K, x1 = 0.0201	1019.23	0.845
328.15 K, x1 = 0.0401	1028.98	0.988
328.15 K, x1 = 0.06	1039.22	1.185
328.15 K, x1 = 0.0801	1047.33	1.395
328.15 K, x1 = 0.1	1055.72	1.657
328.15 K, x1 = 0.1201	1064	1.97
328.15 K, x1 = 0.15	1075.88	2.545
333.15 K, x1 = 0.0201	1014.76	0.79
333.15 K, x1 = 0.0401	1024.69	0.919
333.15 K, x1 = 0.06	1034.16	1.096
333.15 K, x1 = 0.0801	1043.04	1.279
333.15 K, x1 = 0.1	1051.63	1.515
333.15 K, x1 = 0.1201	1059.77	1.776
333.15 K, x1 = 0.15	1071.94	2.285
